The values below come from paper PMC7587356, “High-Throughput Screening for Inhibitors of the SARS-CoV-2 Protease Using a FRET-Biosensor” (Molecules, 2020).

Where two headings read alike, the source gives them in different places.

The assay has as its target SARS-CoV-2 3CLpro (Severe acute respiratory syndrome coronavirus 2, UniProt P0DTD1). The assay is described as follows: biochemical. It is filed as biochemical. Set-up: Replicate_1 / Replicate_2 / mean / mean (LOPAC_screen_w_protease): unit not given here. As to conditions: for inhibition at 5 µM: 4 h.
Where [1] appears, read: LOPAC1280 primary screen with protease, 5 µM compound, mean of the two replicates.
[2] abbreviates: LOPAC1280 primary screen with protease, 5 µM compound, replicate 1.
Where [3] appears, read: LOPAC1280 primary screen with protease, 5 µM compound, replicate 2.
[4] abbreviates: sheet LOPAC_screen_w_protease, primary screen with protease, 5 µM, mean of two replicates, read-out: mean.
Where [5] appears, read: sheet LOPAC_screen_w_protease, primary screen with protease, 5 µM, replicate 1, read-out: Replicate_1.
Where [6] appears, read: sheet LOPAC_screen_w_protease, primary screen with protease, 5 µM, replicate 2, read-out: Replicate_2.
[7] abbreviates: LOPAC1280 primary screen with protease, 5 µM compound, mean of two replicates.

For `C[C@@H]1O[C@@H](O[C@H]2C[C@@H](O)[C@]3(CO)[C@H]4[C@H](O)C[C@]5(C)[C@@H](C6=CC(=O)OC6)CC[C@]5(O)[C@@H]4CC[C@]3(O)C2)[C@H](O)[C@H](O)[C@H]1O` [Ouabain], the inhibition at 5 µM (read-out: Replicate_1) amounted to 3.98%, the inhibition at 5 µM (read-out: Replicate_2) worked out at 1.68% and the inhibition at 5 µM (read-out: mean) is 2.83%.

As to `Cc1nc2sccn2c(=O)c1CCN1CCC(=C(c2ccccc2)c2ccc(F)cc2)CC1` [Diacylglycerol kinase inhibitor I], where the note is “sheet LOPAC_screen_w_protease, primary screen of LOPAC1280 at 5 µM with protease, mean of the two replicates”, the mean was found to be 3.623. The compound further yielded a Replicate_1 (sheet LOPAC_screen_w_protease, primary screen of LOPAC1280 at 5 µM with protease, replicate 1) of 4.4123. The same compound came in with a Replicate_2 (sheet LOPAC_screen_w_protease, primary screen of LOPAC1280 at 5 µM with protease, replicate 2) of 2.833.

In the case of `CC(C)(C)NCC(O)c1ccc(O)c(CO)c1.CC(C)(C)NCC(O)c1ccc(O)c(CO)c1.O=S(=O)(O)O` (stereo not drawn) [Albuterol hemisulfate], the “mean (LOPAC_screen_w_protease)” value under setting [1] is on record as 2.078. The “Replicate_1 (LOPAC_screen_w_protease)” value under setting [2] was found to be 2.563. Also, the “Replicate_2 (LOPAC_screen_w_protease)” value under setting [3] was found to be 1.593.

In turn, `CC1(C)CCC=[N+]1[O-]` [5,5-Dimethyl-1-pyrroline-N-oxide] displayed a mean (sheet LOPAC_screen_w_protease, LOPAC1280 at 5 µM, mean of two replicates) of 1.097. Also, the Replicate_1 (sheet LOPAC_screen_w_protease, LOPAC1280 at 5 µM, replicate 1) is listed as 0.9422. The Replicate_2 (sheet LOPAC_screen_w_protease, LOPAC1280 at 5 µM, replicate 2) is on record as 1.253.

`CCCCCCCCCCCCCCCCOCC(COCC(F)(F)F)OP(=O)(O)OC` (stereo not drawn) [MJ33] returned a Replicate_1 of 1.4444, a Replicate_2 of -0.2702 and a mean of 0.5871.

With `N=C(N)NC(CCC(=O)O)C(=O)O` (stereo not drawn) [alpha-Guanidinoglutaric acid], the “mean (LOPAC_screen_w_protease)” value under setting [1] worked out at 1.992. Under setting [2], the “Replicate_1 (LOPAC_screen_w_protease)” value amounted to 2.352. Also, the “Replicate_2 (LOPAC_screen_w_protease)” value under setting [3] turned out to be 1.632.

Take `C[N+](C)(C)CCCCCC[N+](C)(C)C` [Hexamethonium bromide]: the inhibition at 5 µM was 0.248% under setting [4], 1.66% under setting [5] and -1.17% under setting [6].

With `CC(=O)[C@H]1CC[C@H]2[C@@H]3CCC4=CC(=O)CC[C@]4(C)[C@H]3CC[C@]12C` [Progesterone], the inhibition at 5 µM runs as follows: (sheet LOPAC_screen_w_protease, LOPAC1280 primary screen with protease, 5 µM compound, mean of the two replicates, read-out: mean) 5.55%; (sheet LOPAC_screen_w_protease, LOPAC1280 primary screen with protease, 5 µM compound, replicate 1, read-out: Replicate_1) 3.58%; (sheet LOPAC_screen_w_protease, LOPAC1280 primary screen with protease, 5 µM compound, replicate 2, read-out: Replicate_2) 7.53%.

Take `Cc1ccc(OCC(O)C(C)NC(C)C)c2c1CCC2.Cl` (stereo not drawn) [ICI 118,551 hydrochloride]: the “mean (LOPAC_screen_w_protease)” value under setting [1] is reported as 1.851. Further, the “Replicate_1 (LOPAC_screen_w_protease)” value under setting [2] is on record as 3.391. Also, the “Replicate_2 (LOPAC_screen_w_protease)” value under setting [3] turned out to be 0.3114.

In the case of `Nc1nc(Cl)nc2c1ncn2[C@@H]1O[C@H](CO)[C@@H](O)[C@H]1O` [2-Chloroadenosine], under setting [7], the “mean (LOPAC_screen_w_protease)” value is given as 1.409. In addition, under setting [2], the “Replicate_1 (LOPAC_screen_w_protease)” value amounted to 1.21. Further, the “Replicate_2 (LOPAC_screen_w_protease)” value under setting [3] stood at 1.608.

Consider `CC(=O)N[C@@H](Cc1c[nH]c2ccccc12)C(=O)OCc1cc(C(F)(F)F)cc(C(F)(F)F)c1` [L-732,138], for which, where the note is “sheet LOPAC_screen_w_protease, primary screen with protease, mean of two replicates”, the mean is 2.284. Moreover, for the setting “sheet LOPAC_screen_w_protease, primary screen with protease, replicate 1”, the Replicate_1 came out at 2.97. The compound further displayed a Replicate_2 (sheet LOPAC_screen_w_protease, primary screen with protease, replicate 2) of 1.597.

`NC(CO)(CO)CO.O=C(c1ccccc1)c1ccc2n1CCC2C(=O)O` (stereo not drawn) [Ketorolac tris salt]: under setting [7], the “mean (LOPAC_screen_w_protease)” value is 1.7087. Under setting [2], the “Replicate_1 (LOPAC_screen_w_protease)” value turned out to be 1.974. In addition, the “Replicate_2 (LOPAC_screen_w_protease)” value under setting [3] came out at 1.443.

For the compound `NCC1(CC(=O)O)CCCCC1` [Gabapentin], the “mean (LOPAC_screen_w_protease)” value came out at 1.9821. Moreover, under “read-out: Replicate_1 (LOPAC_screen_w_protease)”, the inhibition at 5 µM amounted to 3.94%. Under “read-out: Replicate_2 (LOPAC_screen_w_protease)”, the inhibition at 5 µM amounted to 0.0248%.

As to `CCCN1C[C@H](CSC)C[C@@H]2c3cccc4[nH]cc(c34)C[C@H]21` [Pergolide methanesulfonate], the inhibition at 5 µM reads like this: under setting [4], 0.241%; under setting [5], 0.0285%; under setting [6], 0.454%.

For `COc1ccccc1N1CCN(CC(O)COc2cccc3ccccc23)CC1.Cl.Cl` (stereo not drawn) [Naftopidil dihydrochloride], the mean (sheet LOPAC_screen_w_protease, LOPAC1280 primary screen with protease, 5 µM compound, mean of the two replicates) is recorded as 6.057. Moreover, the Replicate_1 (sheet LOPAC_screen_w_protease, LOPAC1280 primary screen with protease, 5 µM compound, replicate 1) is 7.362. Besides, the Replicate_2 (sheet LOPAC_screen_w_protease, LOPAC1280 primary screen with protease, 5 µM compound, replicate 2) stood at 4.753.
